Reference: PMC5133449, “Peripheral self-reactivity regulates antigen-specific CD8 T-cell responses and cell division under physiological conditions” (Open Biology, 2016)
pKd: −log10 of the molar value. Entries after “also recorded” stand apart in the source; their conditions may differ.

Columns and labels:
[1] = test system: CD8 T cells from Rop7-I mice; assay: Peptide-loaded H-2 L^d tetramer staining; assay type: cell-based, mouse; conditions: caged tetramer approach, H-2 L^d tetramers loaded with peptide, splenocytes, flow cytometry
Experimental: (§1) Figure 2. Binding of Rop7-I, -II and -III to Rop7 peptide variants. (a) Splenocytes from WT or Rop7-I, -II and -III heterozygous mice were stained for CD8 and with H-2 L^d tetramers loaded with the indicated peptides. Histograms show H-2 L^d-Rop7 variants staining on CD8 T cells from WT or Rop7 mice. (b) TCRs from Rop7-I, -II and -III T cells were recombinantly expressed and refolded. Binding affinities for IPAAAGRFF-, IPAFAGRFF- and IPANAGRFF-loaded H-2 L^d were measured with a BIAcore 3000 and analysed using an equilibrium model. The raw data (black lines), fits (red lines) and calculated dissociation constant are shown in each panel.
(§2) Purified anti-CD3 (clone 17A2) and anti-CD28 (clone 37.51) antibodies, fluorescently labelled Granzyme B (clone 16G6), CD3ɛ (clone 145-2C11), CD4 (clone GK1.5), CD8 (clone 53-6.7), CD45.1 (clone A20) specific antibodies were purchased from eBioscience. Biotinylated anti-CD4 (clone GK1.5), anti-CD19 (clone 1D3), fluorescently labelled CD25 (clone 7D4), CD44 (clone 1M7), CD69 (clone H1.2F3), TNFα (clone MP6-XT22) and actin (clone ab-5) specific antibodies were purchased from BD Biosciences. Fluorescently labelled CD5 (clone 53-7.3), CD28 (clone E18), CD62 L (clone mel-14), Ki-67 (clone 16A8) specific antibodies and Zombie Aqua (cat. no. 423101) were purchased from Biolegend. Fluorescently labelled anti-IFNγclone 9004) was purchased from Sigma. Anti-phospho-tyrosine residue (clone 4G10) was purchased from Millipore. Anti-phopho-ERK (Thr202/Tyr204) (D13.14.4E, cat. no. 4370) and anti-phospho-S6 (Ser235/236) (D57.2.2E, cat. no. 4858) were purchased from Cell Signalling Technology. Horseradish peroxidase-conjugated anti-mouse antibody was purchased from GE Healthcare (cat. no. NXA931). Horseradish peroxidase-conjugated goat anti-rabbit antibody was purchased from Southern Biotech (cat. no. 4041-05). CD8 T cells isolation kit (130-095-236) and anti-biotin beads (130-090-485) were purchased from Miltenyi and used according to the manufacturer's instructions. ELISA kits for the detection of mouse IL-2 (cat. no. 431001), IFNγ (cat. no. 430801) and TNFα (cat. no. 430901) were purchased from BioLegend. ELISA for mouse IgM (cat. no. 88-50470-22) and IgG (cat. no. 88-50400-22) were purchased from Ebioscience. Recombinant mouse GM-CSF (cat. no. 315-03), IL-2 (212-12) and IL-4 (cat. no. 214-14) were purchased from Peprotech. Carboxyfluorescein succinimidyl ester (CFSE) was purchased from Sigma (cat. no. 21888). Protease inhibitor cocktail was purchased from Roche (cat. no. 11836153001). H-2 L^d tetramers were produced and used as described elsewhere or obtained from the NIH tetramer facility. All peptides were produced by the MIT biopolymer facility through standard solid-phase peptide synthesis or purchased from Pepceuticals, UK.

[2] = test system: CD8 T cells from Rop7-II mice; assay: Peptide-loaded H-2 L^d tetramer staining; assay type: cell-based, mouse; conditions: caged tetramer approach, H-2 L^d tetramers loaded with peptide, splenocytes, flow cytometry
Experimental: as §1, §2

[3] = test system: CD8 T cells from Rop7-III mice; assay: Peptide-loaded H-2 L^d tetramer staining; assay type: cell-based, mouse; conditions: caged tetramer approach, H-2 L^d tetramers loaded with peptide, splenocytes, flow cytometry
Experimental: as §1, §2

[4] = test system: Rop7-I CD8 T cells; assay: T-cell proliferation (CFSE dilution) with peptide-loaded BMDC; assay type: cell-based, mouse; conditions: 1 or 0.01 µg/ml, 3 days
From the text: (§3) Figure 4. Rop7 CD8 T cells proliferation and cytokine secretion upon Rop7 peptide variant stimulation. Sorted CD8^+ tetramer^+ T cells from pooled lymph nodes and spleen of Rop7-I, -II or -III heterozygous mice were labelled with CFSE and stimulated with BMDC loaded with Rop7 peptide variants at indicated concentrations. (a) Histograms show CFSE dilution on sorted CD8 T cells from Rop7-I, -II or -III mice stimulated with IPAAAGRFF peptide-loaded BMDC after 3 days of stimulation. (b) IL-2, TNFα and IFNγ concentration measured in culture supernatant after 3 days of stimulation. Mean of three technical replicates (T-cell stimulation). Error bars: standard deviation (n = 3). Representative of three independent experiments. (c) Bar histograms show the percentage of living cells (Zombie Aqua negative) after 3 days of stimulation with IPAAAGRFF-loaded BMDC. Mean of three technical replicates (T-cell stimulation). Error bars: standard deviation (n = 3). Representative of three independent experiments. (d) Histograms show CFSE dilution on sorted CD8 T cells from Rop7-I or -II heterozygous mice stimulated with IPANAGRFF peptide-loaded BMDC after 3 days of stimulation. (e) IL-2, TNFα and IFNγ concentration measured in culture supernatant after 3 days of stimulation. Mean of three technical replicates (T-cell stimulation). Error bars: standard deviation (n = 3). Representative of three independent experiments. (f) Bar histograms show the percentage of living cells (Zombie Aqua negative) after 3 days of stimulation with IPANAGRFF-loaded BMDC. *p < 0.05, **p < 0.01, ***p < 0.001 (Student's t-test).
(§4) Anti-CD3/28: plate-bound anti-CD3 (clone 17A2) and anti-CD28 (clone 37.51) at indicated concentrations in flat bottom 96-well plates in the presence of 10 ng ml^–1 recombinant mouse IL-2 when specified. BMDC: dendritic cells differentiated from bone marrow progenitors for 5–7 days in GM-CSF and IL-4 containing medium loaded with Rop7 peptide (final concentration 1 or 0.01 µg ml^−1). When indicated, 10–20 × 10^6 cells per millilitre were labelled in PBS 2.5 µM CFSE for 2 min at room temperature.

[5] = test system: Rop7-II CD8 T cells; assay: as above; assay type: cell-based, mouse; conditions: 1 or 0.01 µg/ml, 3 days
From the text: as §3, §4

[6] = test system: Rop7-III CD8 T cells; assay: as above; assay type: cell-based, mouse; conditions: 1 or 0.01 µg/ml, 3 days
From the text: as §3, §4

[7] = test system: Rop7-II CD8 T cells; assay: Cytokine secretion with peptide-loaded BMDC; assay type: cell-based, mouse; conditions: 1 or 0.01 µg/ml, supernatant after 3 days, ELISA or multiplex, n = 3 technical replicates
From the text: as §3
(§5) Cytokine concentrations were measured by ELISA according to the manufacturer's instructions or by multiplex assay (Eve Technologies, Calgary, Alberta, Canada).

[8] = test system: Rop7-III CD8 T cells; assay: Cytokine secretion with peptide-loaded BMDC; assay type: cell-based, mouse; conditions: 1 or 0.01 µg/ml, supernatant after 3 days, ELISA or multiplex, n = 3 technical replicates
From the text: as §3, §5

[9] = test system: Rop7-II CD8 T cells; assay: T-cell viability (Zombie Aqua) with peptide-loaded BMDC; assay type: cell-based, mouse; conditions: 3 days
From the text: as §3, with “Representative of three independent experiments. (f) Bar histograms show the percentage of living cells (Zombie Aqua negative) after 3 days of stimulation with IPANAGRFF-loaded BMDC. *p < 0.05, **p < 0.01, ***p < 0.001 (Student's t-test).” left out

[10] = test system: Rop7 CD8 T cells; conditions: BMDC loaded with Rop7 peptide 1 µg/ml, 72 h, then peptide-loaded target splenocytes 16–20 h
Experimental: A measure of 1–2 × 10^5 sorted CD4^+ or CD8^+ tetramers^+ cells from pooled spleen and lymph nodes of Rop7-I, -II or -III mice were stimulated in complete RPMI in 96-well round bottom plates together with 0.5 × 10^5 Rop7 peptide-loaded BMDC (final concentration 1 µg ml^−1). After 72 h, cells were harvested and incubated with 10^5 total cells of a 1 to 1 mixture of CFSE-labelled, Rop7 peptide-loaded CD45.1 BALB/c splenocytes (final concentration 1 µg ml^−1) and control, CFSE-labelled, DMSO-treated CD45.2 BALB/c splenocytes in 96-well round bottom plates. After 16–20 h the ratio of living (propidium iodide negative) CD45.1 versus CD45.2 cells was determined by flow cytometry.

[11] = molecular target: Rop7-III TCR; assay: SPR affinity of H-2 L^d-peptide complexes for immobilised recombinant Rop7-III TCR (BIAcore 3000); assay type: binding, mouse; conditions: peptide loaded in H-2 L^d as analyte, 1 to 200 µM, 25°C, biotinylated TCR on streptavidin CM5 chip, equilibrium model, at least duplicates; read-out: dissociation constant Kd
Experimental: as §1
For the Rop7-I, -II and -III TCRs, the α and β chains were cloned individually in the bacterial expression vector pET28a. Residues threonine 46 of the α chain's and serine 57 of the β chain's constant regions were mutated to cysteine to enable non-native disulfide bridge formation within the heterodimer complex. A biotinylation sequence was introduced at the C terminus of the β chain. The chains were separately expressed in Escherichia coli. BL21-DE3 (pLysS) and obtained as inclusion bodies and dissolved in 8 M urea, 25 mM MES, 1 mM EDTA, 1 mM DTT at pH 6.0. […] The final response was calculated after subtracting the control cell response. […] Equilibrium Kd values were calculated by nonlinear curve fitting of background-subtracted data using PRISM software.

**Q.** IPAAAGRFF was tested. Which tetramer binding [1] did it give?
**A.** The tetramer binding was “bound tetramers loaded with the nominal antigen (IPAAAGRFF), with little quantitative variation”.

**Q.** And the tetramer binding [2]?
**A.** The tetramer binding was “slightly less avid than binding to Rop7-I or -III”.

**Q.** And the tetramer binding [3]?
**A.** The tetramer binding was “bound tetramers loaded with the nominal antigen (IPAAAGRFF), with little quantitative variation”.

**Q.** And the proliferation [4]?
**A.** Its proliferation is “able to proliferate upon antigenic stimulation in a dose-dependent manner”.

**Q.** And the proliferation [5]?
**A.** The proliferation was “able to proliferate upon antigenic stimulation in a dose-dependent manner”.

**Q.** What about the proliferation [6] of the same sequence?
**A.** Its proliferation is “able to proliferate upon antigenic stimulation in a dose-dependent manner”.

**Q.** What about the “IL-2, TNFα and IFNγ production” value [7] of the same sequence?
**A.** Its value is “produced overall less IL-2, TNFα and IFNγ; also recorded: secreted significantly fewer cytokines compared with Rop7-I and -III CD8 T cells”.

**Q.** What about the “IL-2, TNFα and IFNγ production” value [8] of the same sequence?
**A.** The value was “secreted increased amounts of IL-2 and IFNγ but not TNFα when compared with Rop7-I; also recorded: produced significantly more IL-2 and IFNγ, but not TNFα, compared with Rop7-I CD8 T cells”.

**Q.** What about the “cell death / living cells” value [9] of the same sequence?
**A.** The value was “significantly increased tendency to cell death at a lower degree of stimulation; also recorded: an increased proportion of cells died as the strength of stimulus decreased”.

**Q.** And the cytotoxicity [10]?
**A.** Its cytotoxicity is “all Rop7 CD8 T cells were cytotoxic, albeit with subtle but notable differences”.

**Q.** How did the pKd [11] turn out when IPANAGRFF was run?
**A.** The pKd was less than 3.70.

**Q.** What about the tetramer binding [1] of the same sequence?
**A.** The tetramer binding was “Rop7-I and -II, but not Rop7-III T cells bound”.

**Q.** What about the tetramer binding [2] of the same sequence?
**A.** Its tetramer binding is “Rop7-I and -II, but not Rop7-III T cells bound”.

**Q.** And the tetramer binding [3]?
**A.** Its tetramer binding is “not Rop7-III T cells bound”.

**Q.** And the proliferation [4]?
**A.** Its proliferation is “able to proliferate upon stimulation”.

**Q.** What about the proliferation [5] of the same sequence?
**A.** The proliferation was “able to proliferate upon stimulation”.

**Q.** And the “IL-2, TNFα and IFNγ production” value [7]?
**A.** The value was “produced significantly fewer cytokines; also recorded: equally poor ability to secrete cytokines”.

**Q.** And the “cell death / living cells” value [9]?
**A.** The value was “more prone to cell death at both peptide concentrations; also recorded: enhanced cell death compared with Rop7-I CD8 T cells”.

**Q.** With IPAFAGRFF as the sequence, how does the pKd [11] read?
**A.** Its pKd is less than 3.70.

**Q.** What about the tetramer binding [1] of the same sequence?
**A.** The tetramer binding was “only Rop7-II T cells bound”.

**Q.** What about the tetramer binding [2] of the same sequence?
**A.** Its tetramer binding is “only Rop7-II T cells bound”.

**Q.** And the tetramer binding [3]?
**A.** The tetramer binding was “only Rop7-II T cells bound”.
